Test: Hematology assays in cynomolgus monkeys (Example 45)
Format: in vivo
Conditions: for MCH / MCHC / MCV / RBC count / WBC count / hematocrit / hemoglobin: escalating dose regimen
Procedure, shortened: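 Cynomolgus monkeys (2 male, 3 female per group) dosed subcutaneously with antisense oligonucleotide or PBS, escalating 5, 10, then 25 mg/kg two to three times weekly over 12 weeks; one chronic group held at 10 mg/kg from week 4. Blood sampled weekly; necropsy on day 85.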

## ISIS 416864: MOE gapmer, nucleobases 1275 to 1318 of SEQ ID NO: 1 (Table 8) (antisense GGCAGCGGACGGCATTGGTG; MOE gapmer, wing and gap sizes not given here)
Day 64
  MCH: 23 pg
Day 71
  MCH: 23 pg
Day 78
  MCH: 23 pg
Day 85
  MCH: 23 pg
Day 8
  basophils: 0.2%
  eosinophils: 0.7%
  lymphocytes: 45%
  monocytes: 2.1%
  neutrophils: 52%
  platelet count: 438000 µL⁻¹
  reticulocytes: 0.8%
  MCH: 23 pg
  MCHC: 29 g/dL
  MCV: 78 fL
  RBC count: 5.7e+06 µL⁻¹
  WBC count: 11000 µL⁻¹
  hematocrit: 44%
  hemoglobin: 12.7 g/dL
Day 15
  basophils: 0.2%
  eosinophils: 0.5%
  lymphocytes: 38%
  monocytes: 2.4%
  neutrophils: 59%
  platelet count: 439000 µL⁻¹
  reticulocytes: 0.8%
  MCH: 23 pg
  MCHC: 30 g/dL
  MCV: 74 fL
  RBC count: 5.7e+06 µL⁻¹
  WBC count: 10000 µL⁻¹
  hematocrit: 42%
  hemoglobin: 12.8 g/dL
Day 22
  basophils: 0.2%
  eosinophils: 0.9%
  lymphocytes: 37%
  monocytes: 2.8%
  neutrophils: 59%
  platelet count: 364000 µL⁻¹
  reticulocytes: 0.9%
  MCH: 23 pg
  MCHC: 29 g/dL
  MCV: 79 fL
  RBC count: 5.3e+06 µL⁻¹
  WBC count: 10000 µL⁻¹
  hematocrit: 42%
  hemoglobin: 12.1 g/dL
Day 29
  basophils: 0.3%
  eosinophils: 0.9%
  lymphocytes: 51%
  monocytes: 3.4%
  neutrophils: 44%
  platelet count: 397000 µL⁻¹
  reticulocytes: 1.3%
  MCH: 23 pg
  MCHC: 29 g/dL
  MCV: 80 fL
  RBC count: 5.3e+06 µL⁻¹
  WBC count: 10000 µL⁻¹
  hematocrit: 43%
  hemoglobin: 12.1 g/dL
Day 36
  basophils: 0.3%
  eosinophils: 0.6%
  lymphocytes: 38%
  monocytes: 2.3%
  neutrophils: 58%
  platelet count: 428000 µL⁻¹
  reticulocytes: 1.3%
  MCH: 23 pg
  MCHC: 30 g/dL
  MCV: 76 fL
  RBC count: 5.6e+06 µL⁻¹
  WBC count: 10000 µL⁻¹
  hematocrit: 42%
  hemoglobin: 12.5 g/dL
Day 43
  basophils: 0.4%
  eosinophils: 0.6%
  lymphocytes: 39%
  monocytes: 2.1%
  neutrophils: 57%
  platelet count: 351000 µL⁻¹
  reticulocytes: 1.1%
  MCH: 22 pg
  MCHC: 29 g/dL
  MCV: 77 fL
  RBC count: 5.5e+06 µL⁻¹
  WBC count: 10000 µL⁻¹
  hematocrit: 42%
  hemoglobin: 12.2 g/dL
Day 50
  basophils: 0.4%
  eosinophils: 0.7%
  lymphocytes: 46%
  monocytes: 2.9%
  neutrophils: 49%
  platelet count: 419000 µL⁻¹
  reticulocytes: 1.3%
  MCH: 22 pg
  MCHC: 28 g/dL
  MCV: 79 fL
  RBC count: 5.6e+06 µL⁻¹
  WBC count: 12000 µL⁻¹
  hematocrit: 44%
  hemoglobin: 12.1 g/dL
Day 57
  basophils: 0.3%
  eosinophils: 0.4%
  lymphocytes: 39%
  monocytes: 2.4%
  neutrophils: 57%
  platelet count: 409000 µL⁻¹
  reticulocytes: 1.0%
  MCH: 23 pg
  MCHC: 29 g/dL
  MCV: 77 fL
  RBC count: 5.5e+06 µL⁻¹
  WBC count: 12000 µL⁻¹
  hematocrit: 42%
  hemoglobin: 12.3 g/dL
Day 64
  basophils: 0.4%
  eosinophils: 0.7%
  lymphocytes: 46%
  monocytes: 2.8%
  neutrophils: 49%
  platelet count: 383000 µL⁻¹
  reticulocytes: 0.8%
  MCHC: 29 g/dL
  MCV: 75 fL
  RBC count: 5.6e+06 µL⁻¹
  WBC count: 11000 µL⁻¹
  hematocrit: 42%
  hemoglobin: 12.1 g/dL
Day 71
  basophils: 0.4%
  eosinophils: 1.1%
  lymphocytes: 52%
  monocytes: 3.7%
  neutrophils: 42%
  platelet count: 394000 µL⁻¹
  reticulocytes: 1.0%
  MCHC: 28 g/dL
  MCV: 79 fL
  RBC count: 5.6e+06 µL⁻¹
  WBC count: 14000 µL⁻¹
  hematocrit: 44%
  hemoglobin: 12.2 g/dL
Day 78
  basophils: 0.3%
  eosinophils: 1.2%
  lymphocytes: 46%
  monocytes: 3.7%
  neutrophils: 48%
  platelet count: 366000 µL⁻¹
  reticulocytes: 1.2%
  MCHC: 30 g/dL
  MCV: 74 fL
  RBC count: 5.3e+06 µL⁻¹
  WBC count: 11000 µL⁻¹
  hematocrit: 39%
  hemoglobin: 11.9 g/dL
Day 85
  basophils: 0.4%
  eosinophils: 1.6%
  lymphocytes: 54%
  monocytes: 3.7%
  neutrophils: 39%
  platelet count: 387000 µL⁻¹
  reticulocytes: 1.5%
  MCHC: 30 g/dL
  MCV: 74 fL
  RBC count: 5.4e+06 µL⁻¹
  WBC count: 12000 µL⁻¹
  hematocrit: 40%
  hemoglobin: 12.3 g/dL
Day −5
  basophils: 0.2%
  eosinophils: 0.9%
  lymphocytes: 44%
  monocytes: 3.3%
  neutrophils: 51%
  platelet count: 456000 µL⁻¹
  reticulocytes: 0.9%
  MCH: 23 pg
  MCHC: 29 g/dL
  MCV: 79 fL
  RBC count: 5.6e+06 µL⁻¹
  WBC count: 13000 µL⁻¹
  hematocrit: 44%
  hemoglobin: 13.0 g/dL
Day −14
  basophils: 0.2%
  eosinophils: 1.0%
  lymphocytes: 42%
  monocytes: 2.8%
  neutrophils: 53%
  platelet count: 434000 µL⁻¹
  reticulocytes: 0.9%
  MCH: 23 pg
  MCHC: 29 g/dL
  MCV: 79 fL
  RBC count: 5.5e+06 µL⁻¹
  WBC count: 13000 µL⁻¹
  hematocrit: 43%
  hemoglobin: 12.7 g/dL
